Assay results from patent publication US20100298141A1, “SUBSTITUTED PYRIDINE N-OXIDE HERBICIDES” (E. I. DU PONT DE NEMOURS AND COMPANY, priority 2007, published 2010).

What was measured:
field violet = assay: Test D preemergence test; format: in vivo, Viola arvensis; details: scale 0 to 100
Source text: Seeds of plant species selected from annual bluegrass (Poa annua), blackgrass (Alopecurus myosuroides), downy bromegrass (Bromus tectorum), field violet (Viola arvensis), green foxtail (Setaria viridis), Italian ryegrass (Lolium multiflorum), littleseed canarygrass (Phalaris minor), spring wheat (Triticum aestivum), wild oat (Avena fatua), […]), winter barley (Hordeum vulgare), and winter wheat (Triticum aestivum) were planted and treated preemergence with test chemicals formulated in a non-phytotoxic solvent mixture which included a surfactant. […] A dash (-) response means no test result.

sugarcane = assay: Test F pre-/postemergence test; format: in vivo, Saccharum officinarum; details: preemergence, scale 0 to 100
Source text: Seeds of plant species selected from bermudagrass (Cynodon dactylon), Surinam grass (Brachiaria decumbens), large crabgrass (Digitaria sanguinalis), green foxtail (Setaria viridis), goosegrass (Eleusine indica), johnsongrass (Sorghum halepense), kochia (Kochia scoparia), pitted morningglory (Ipomoea lacunosa), purple nutsedge (Cyperus rotundus), common ragweed (Ambrosia elation), mustard (Brassica nigra), guineagrass (Panicum maximum), […] (Paspalum dilatatum), barnyardgrass (Echinochloa crus-galli), southern sandbur (Cenchrus echinatus), common sowthistle (Sonchus oleraceous), prickly […] spinosa), Italian ryegrass (Lolium multiflorum), common purslane (Portulaca oleracea), broadleaf signalgrass (Brachiaria platyphylla), common groundsel (Senecio vulgaris), common chickweed (Stellaria media), Virginia dayflower (Commelina virginica), annual bluegrass (Poa annua), naked crabgrass (Digitaria nuda), […] cochinchinensis), quackgrass (Elytrigia repens), Canada horseweed (Conyza canadensis), field bindweed (Convolvulus arvensis), […] (Bidens bipinnata), common mallow (Malva sylvestris), Russian thistle (Salsola kali), and sugarcane (Saccharum officinarum) were planted and treated preemergence with test chemicals formulated in a non-phytotoxic solvent mixture which included a surfactant. At a different time, sugarcane was treated with postemergence applications of some of the test chemicals formulated in the same manner. Plants were approximately 3- to 4-leaf stage for the postemergence treatments. Treated plants and controls were maintained in a greenhouse for 14 to 21 days, after which time all species were compared to controls and visually evaluated. […] A dash (-) response means no test result.

millet foxtail = assay: Test G preemergence test; format: in vivo, Setaria italica; details: scale 0 to 100
large crabgrass = assay: Test G preemergence test; format: in vivo, Digitaria sanguinalis; details: scale 0 to 100
Redstem = assay: Test C flooded paddy test; format: in vivo; details: Flood
Source text: (§1) At time of treatment, test pots were flooded to 3 cm above the soil surface, treated by application of test compounds directly to the paddy water, and then maintained at that water depth for the duration of the test. Treated plants and controls were maintained in a greenhouse for 13 to 15 days, after which time all species were compared to controls and visually evaluated. […] A dash (-) response means no test result.

Ricefield Bulrush = assay: Test C flooded paddy test; format: in vivo; details: Flood
Source text: as §1

rice = assay: Test B flooded paddy test; format: in vivo, Oryza sativa; details: Flood, 250 g ai/ha, 13 to 15 days; scale 0 to 100, 0 no effect, 100 complete control
Source text: as §1

yellow foxtail = assay: Test G preemergence test; format: in vivo, Pennisetum glaucum; details: scale 0 to 100
umbrella sedge = assay: Test B flooded paddy test; format: in vivo, Cyperus difformis; details: Flood, 250 g ai/ha, 13 to 15 days; scale 0 to 100, 0 no effect, 100 complete control
Source text: as §1

fall panicum = assay: Test G preemergence test; format: in vivo, Panicum dichotomiflorum; details: scale 0 to 100
broadleaf signalgrass = assay: Test G preemergence test; format: in vivo, Brachiaria platyphylla; details: scale 0 to 100
woolly cupgrass = assay: Test G preemergence test; format: in vivo, Eriochloa villosa; details: scale 0 to 100
[1] = 31 g ai/ha, scale 0 to 100 (0 no effect, 100 complete control)
[2] = 62 g ai/ha, scale 0 to 100, 0 no effect, 100 complete control, 13 to 15 days
[3] = 125 g ai/ha, scale 0 to 100, 0 no effect, 100 complete control, 13 to 15 days
[4] = 250 g ai/ha, scale 0 to 100 (0 no effect, 100 complete control)

Cc1cc[n+]([O-])c(S(=O)(=O)Cc2c(C(F)(F)F)nn(C)c2OC(F)F)c1 [Compound 2]
Plant response rating, Field Violet (field violet; 31 g ai/ha): 0 | Plant response rating, Field Violet (field violet; 62 g ai/ha): 0 | Plant response rating, Field Violet (field violet; 125 g ai/ha): 95 | Plant response rating, Field Violet (field violet; 250 g ai/ha): 100 | Plant response rating, Sugarcane (sugarcane; 125 g ai/ha): 70 | Plant response rating, Sugarcane (sugarcane; 500 g ai/ha): 83 | Plant response rating, Foxtail, Millet (millet foxtail; 31 g ai/ha): 0 | Plant response rating, Foxtail, Millet (millet foxtail; 62 g ai/ha): 100 | Plant response rating, Foxtail, Millet (millet foxtail; 125 g ai/ha): 100 | Plant response rating, Foxtail, Millet (millet foxtail; 250 g ai/ha): 100 | Plant response rating, Crabgrass, Large (large crabgrass; 31 g ai/ha): 0 | Plant response rating, Crabgrass, Large (large crabgrass; 62 g ai/ha): 75 | Plant response rating, Crabgrass, Large (large crabgrass; 125 g ai/ha): 100 | Plant response rating, Crabgrass, Large (large crabgrass; 250 g ai/ha): 100 | Plant response rating, Redstem (Redstem; [1]): 0 | Plant response rating, Redstem (Redstem; [2]): 30 | Plant response rating, Redstem (Redstem; [3]): 65 | Plant response rating, Redstem (Redstem; [4]): 85 | Plant response rating, Ricefield Bulrush (Ricefield Bulrush; [1]): 20 | Plant response rating, Ricefield Bulrush (Ricefield Bulrush; [2]): 20 | Plant response rating, Ricefield Bulrush (Ricefield Bulrush; [3]): 45 | Plant response rating, Ricefield Bulrush (Ricefield Bulrush; [4]): 80 | Plant response rating, Rice, Transplanted (rice): 80 | Plant response rating, Foxtail, Yellow (yellow foxtail; 31 g ai/ha): 0 | Plant response rating, Foxtail, Yellow (yellow foxtail; 62 g ai/ha): 20 | Plant response rating, Foxtail, Yellow (yellow foxtail; 125 g ai/ha): 100 | Plant response rating, Foxtail, Yellow (yellow foxtail; 250 g ai/ha): 100 | Plant response rating, Umbrella Sedge (umbrella sedge): 100 | Plant response rating, Fall Panicum (fall panicum; 31 g ai/ha): 25 | Plant response rating, Fall Panicum (fall panicum; 62 g ai/ha): 65 | Plant response rating, Fall Panicum (fall panicum; 125 g ai/ha): 100 | Plant response rating, Fall Panicum (fall panicum; 250 g ai/ha): 100 | Plant response rating, Signalgrass (broadleaf signalgrass; 31 g ai/ha): 0 | Plant response rating, Signalgrass (broadleaf signalgrass; 62 g ai/ha): 50 | Plant response rating, Signalgrass (broadleaf signalgrass; 125 g ai/ha): 65 | Plant response rating, Signalgrass (broadleaf signalgrass; 250 g ai/ha): 65 | Plant response rating, Cupgrass, Woolly (woolly cupgrass; 31 g ai/ha): 0 | Plant response rating, Cupgrass, Woolly (woolly cupgrass; 62 g ai/ha): 0 | Plant response rating, Cupgrass, Woolly (woolly cupgrass; 125 g ai/ha): 95 | Plant response rating, Cupgrass, Woolly (woolly cupgrass; 250 g ai/ha): 95

Cc1cc[n+]([O-])c([S+]([O-])Cc2c(C(F)(F)F)nn(C)c2OC(F)F)c1 (stereo not drawn) [Compound 1]
Plant response rating, Field Violet (field violet; 31 g ai/ha): 20 | Plant response rating, Field Violet (field violet; 62 g ai/ha): 20 | Plant response rating, Field Violet (field violet; 125 g ai/ha): 20 | Plant response rating, Field Violet (field violet; 250 g ai/ha): 75 | Plant response rating, Foxtail, Millet (millet foxtail; 31 g ai/ha): 0 | Plant response rating, Foxtail, Millet (millet foxtail; 62 g ai/ha): 100 | Plant response rating, Foxtail, Millet (millet foxtail; 125 g ai/ha): 100 | Plant response rating, Foxtail, Millet (millet foxtail; 250 g ai/ha): 100 | Plant response rating, Crabgrass, Large (large crabgrass; 31 g ai/ha): 10 | Plant response rating, Crabgrass, Large (large crabgrass; 62 g ai/ha): 100 | Plant response rating, Crabgrass, Large (large crabgrass; 125 g ai/ha): 100 | Plant response rating, Crabgrass, Large (large crabgrass; 250 g ai/ha): 100 | Plant response rating, Redstem (Redstem; [1]): 40 | Plant response rating, Redstem (Redstem; [2]): 60 | Plant response rating, Redstem (Redstem; [3]): 80 | Plant response rating, Redstem (Redstem; [4]): 85 | Plant response rating, Ricefield Bulrush (Ricefield Bulrush; [1]): 75 | Plant response rating, Ricefield Bulrush (Ricefield Bulrush; [2]): 75 | Plant response rating, Ricefield Bulrush (Ricefield Bulrush; [3]): 75 | Plant response rating, Ricefield Bulrush (Ricefield Bulrush; [4]): 85 | Plant response rating, Rice, Transplanted (rice): 80 | Plant response rating, Foxtail, Yellow (yellow foxtail; 31 g ai/ha): 20 | Plant response rating, Foxtail, Yellow (yellow foxtail; 62 g ai/ha): 100 | Plant response rating, Foxtail, Yellow (yellow foxtail; 125 g ai/ha): 100 | Plant response rating, Foxtail, Yellow (yellow foxtail; 250 g ai/ha): 100 | Plant response rating, Umbrella Sedge (umbrella sedge): 100 | Plant response rating, Fall Panicum (fall panicum; 31 g ai/ha): 0 | Plant response rating, Fall Panicum (fall panicum; 62 g ai/ha): 10 | Plant response rating, Fall Panicum (fall panicum; 125 g ai/ha): 30 | Plant response rating, Fall Panicum (fall panicum; 250 g ai/ha): 100 | Plant response rating, Signalgrass (broadleaf signalgrass; 31 g ai/ha): 20 | Plant response rating, Signalgrass (broadleaf signalgrass; 62 g ai/ha): 70 | Plant response rating, Signalgrass (broadleaf signalgrass; 125 g ai/ha): 70 | Plant response rating, Signalgrass (broadleaf signalgrass; 250 g ai/ha): 100 | Plant response rating, Cupgrass, Woolly (woolly cupgrass; 31 g ai/ha): 30 | Plant response rating, Cupgrass, Woolly (woolly cupgrass; 62 g ai/ha): 70 | Plant response rating, Cupgrass, Woolly (woolly cupgrass; 125 g ai/ha): 50 | Plant response rating, Cupgrass, Woolly (woolly cupgrass; 250 g ai/ha): 100
